Experiments:
[1] = system: SP cells (chronically infected with HTLV-1); experiment: SP cell Gag processing (HTLV-1 maturation) immunoblot; assay type: cell-based; details: for amount of full-length (FL) Gag and larger size cleavage intermediates (CI): SP cell lysates and supernatants, 50 μM or 100 μM; for FL Gag band percentage (mean±SEM): 48 h
Description: SP Cell Culture and Protease Inhibition Treatments. SP cells were cultured in RPMI (Invitrogen, Carlsbad, Calif., USA) containing 20% HyClone (FC3) from Thermo Scientific (Waltham, Mass.) and 1% penicillin-streptomycin from Life Technologies (Grand Island, N.Y., USA) and supplemented with human IL-2 (Roche Diagnostics, Indianapolis, Ind., USA) at a concentration of 10 U/mL. Cells were grown to a density of […], and the media was exchanged into media containing the drug treatment at the two concentrations tested (50 μM and 100 μM). DMSO was used as a treatment control at the max concentration (0.01% v/v) as used for the sample with the highest inhibitor concentrations. Cells were treated for 48 h in an incubator at 37° C. with 5% CO2. To harvest the samples, the cell culture supernatant and cells were separated with a 5 min spin at 1000 g. The cell culture supernatant was filtered through a 0.22 μm syringe filter and ultracentrifuged over an 8% Optiprep cushion (Millipore Sigma, USA) (109,000 g for 1.5 hat 4° C.) in a 50.1 Ti rotor (Beckman Coulter, USA). The resulting viral pellet was resuspended in 200 μL of RIPA buffer (150 mM NaCl, 1% (v/v) Nonidet P-40, 0.5% sodium deoxycholate, 0.1% SDS, 25 mM Tris pH 7.4) supplemented with a cOmplete, Mini, EDTA-free cellular Protease Inhibitor Cocktail (Roche Diagnostics, Indianapolis, Ind., USA). The SP cell pellet was washed once with phosphate buffered saline (PBS) and resuspended in a final volume of 200 μL of a RIPA buffer cOmplete, Mini, EDTA-free cellular Protease Inhibitor Cocktail (Roche Diagnostics, Indianapolis, Ind., USA). Immunoblot samples were then prepared and detected as described in the previous method section. Gel band quantification analysis was performed using Fiji. A one-tailed t test for two independent means (95% confidence) was used to determine if the FL Gag band from the various drug treatments in the immunoblot analysis was statistically different from the DMSO controls.
To further validate inhibition of HTLV-1 protease, SP cells (which are chronically infected with HTLV-1) were treated with the same inhibitors (FIG. 20). The SP cell line harbors low numbers of HTLV-1 proviruses and produces virus particles that incorporate full-length Gag, which makes SP an ideal cell culture system for testing the inhibition of HTLV-1 maturation. Gag cleavage products were detected by using a CA (p24) primary antibody in both SP cell lysates and virus particles released in the cell culture supernatants. […] For the Ex.7 treatment of the viral particles produced from the SP cells, the FL Gag band percentage was 5.8±2.8% and 12.9±3.1% (mean±SEM) for 50 μM and 100 μM treatments, respectively (FIGS. 21, 23).

[2] = biological target: T1, HTLV-1 protease (Human T-cell leukemia virus type I, UniProt Q82134, L40I); assay type: biochemical; set-up: This protease construct has 9 amino acids removed from the C-terminus to facilitate crystallization; made in house; host or cells: Escherichia coli; details: 1:1 ratio inhibitor to protease (1 μM), 60 min, 37° C.
[3] = system: wild-type HIV-1; experiment: HIV antiviral assay (293T / TZM-BL luciferase); assay type: cell-based; details: read-out: Antiviral WT EC50
[4] = biological target: T1, HTLV-1 protease; experiment: biochemical
[5] = biological target: T1, HTLV-1 protease; details: HTLV-1 protease
[6] = biological target: T2, HIV-1 protease 11 Mutant (Human immunodeficiency virus type 1 group M subtype B, UniProt P12497); experiment: HIV enzyme inhibition assay (Ki), 11 Mutant variant; assay type: biochemical; details: drug-resistant protease variant 11 Mutant
T2 construct: onto NL4-3 wild-type protease on a pET11a plasmid with codon optimization for protein expression in Escherichia coli; A Q7K mutation was included to prevent autoproteolysis

[7] = biological target: T3, HIV-1 protease I84V (Human immunodeficiency virus type 1 group M subtype B, UniProt P12497, I572V/Q495K); experiment: HIV enzyme inhibition assay (Ki), I84V variant; assay type: biochemical; details: drug-resistant protease variant I84V
T3 construct: onto NL4-3 wild-type protease on a pET11a plasmid; made in house

[8] = biological target: T4, HIV-1 protease 8 Mutant (Human immunodeficiency virus type 1 group M subtype B, UniProt P12497); experiment: HIV enzyme inhibition assay (Ki), 8 Mutant variant; assay type: biochemical; details: drug-resistant protease variant 8 Mutant
T4 construct: onto NL4-3 wild-type protease on a pET11a plasmid with codon optimization for protein expression in Escherichia coli; A Q7K mutation was included to prevent autoproteolysis

[9] = biological target: T5, HIV-1 protease I50V/A71V (Human immunodeficiency virus type 1 group M subtype B, UniProt P12497, A559V/I538V/Q495K); experiment: HIV enzyme inhibition assay (Ki), I50V/A71V variant; assay type: biochemical; details: drug-resistant protease variant I50V/A71V
T5 construct: onto NL4-3 wild-type protease on a pET11a plasmid; made in house

[10] = biological target: T6, HIV-1 protease 10 Mutant (Human immunodeficiency virus type 1 group M subtype B, UniProt P12497); experiment: HIV enzyme inhibition assay (Ki), 10 Mutant variant; assay type: biochemical; details: drug-resistant protease variant 10 Mutant
T6 construct: onto NL4-3 wild-type protease on a pET11a plasmid with codon optimization for protein expression in Escherichia coli; A Q7K mutation was included to prevent autoproteolysis

[11] = biological target: HIV-1 protease KY24 (Human immunodeficiency virus type 1, UniProt P12497); details: read-out: Ki KY24; drug-resistant protease variant KY24

| Compound | amount of full-length (FL) Gag and larger size cleavage intermediates (CI) [1] | inhibition of Gag cleavage and VLP maturation [2] | EC50 [3] | Ki [4] | fold improvement of Ki compared to DRV ([5]; relative to DRV) | fold better inhibition than UM6 ([5]; relative to UM6) | Ki [6] | Ki [7] | FL Gag band percentage (mean±SEM) ([1]; SP cell lysate, 50 μM) | FL Gag band percentage (mean±SEM) ([1]; SP cell lysate, 100 μM) | FL Gag band percentage (mean±SEM) ([1]; viral particles produced from SP cells, 50 μM) | FL Gag band percentage (mean±SEM) ([1]; viral particles produced from SP cells, 100 μM) | Ki [8] | Ki [9] | Ki [10] | Ki [11] |
| --- | --- | --- | --- | --- | --- | --- | --- | --- | --- | --- | --- | --- | --- | --- | --- | --- |
| CC(C)CN(C[C@@H](O)[C@H](Cc1ccccc1)NC(=O)O[C@H]1CO[C@H]2OCC[C@H]21)S(=O)(=O)c1ccc(N)cc1 [DRV, darunavir, reference compound] | increased | effectively inhibited Gag cleavage and VLP maturation | 4.75 nM | – | – | – | – | – | – | – | – | – | – | – | – | – |
| CCOP(=O)(COc1ccc(C[C@H](NC(=O)O[C@H]2CO[C@H]3OCC[C@H]32)[C@H](O)CN(CC(CC)CC)S(=O)(=O)c2ccc(N)cc2)cc1)OCC [Example 7, (3R,3aS,6aR)-hexahydrofuro[2,3-b]furan-3-yl ((2S,3R)-4-((4-amino-N-(2-ethylbutyl)phenyl)sulfonamido)-1-(4-((diethoxyphosphoryl)methoxy)phenyl)-3-hydroxybutan-2-yl)carbamate] | increased | effectively inhibited Gag cleavage and VLP maturation | 16 nM | 30 ± 10 nM | 26 fold | 4 fold | 106 ± 7 nM | < 0.005 nM | 32.4±15.5% | 41.0±13.7% | 5.8±2.8% | 12.9±3.1% | 4.71 ± 0.73 nM | < 0.005 nM | 51.6 ± 5.5 nM | 1.08 ± 0.06 nM |

— patent US11542288B2, “Antiviral compounds” (priority 2020, dated 2023)
